Data published in patent US20220298115A1, “SMALL MOLECULE INHIBITORS OF ACETYL COENZYME A SYNTHETASE SHORT CHAIN 2 (ACSS2)” (Curadev Pharma Pvt. Ltd., priority 2019, published 2022).

Columns and labels:
[1] = tested on: [14C] acetate incorporation in macromolecules, BT474 cells; assay: Cell based [14C] acetate incorporation assay; details: Homo sapiens, BT-474, 3 h at 37° C., read-out: Cellular Activity (IC50 range)
How it was run: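 BT474 cells (4×10^4/well, plated overnight) were preincubated with compound for 10 min at 37°C in HBSS. They were then given 0.1 μCi [14C]acetate plus 10 μM unlabelled acetate (both in the added acetate solution) for 3 h at 37°C, 5% CO2. Label incorporated into macromolecules was harvested onto PEI-treated filters and counted by scintillation.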

human ACSS2 = biological target: T1, human ACSS2 (Homo sapiens, UniProt Q9NR19); assay: ACSS2 enzyme assay (acetyl-CoA formation, LC-MS/MS); format: biochemical; details: cytosolic fraction of BT474 cells as ACSS2 source; 100 μM acetate, CoA and ATP; 2 h at 25° C.; read-out: Enzyme Activity (IC50 range)
T1 construct: The cytosolic fraction of BT474 cells was used as a source of the ACSS2 enzyme; endogenous in cells; host or cells: BT474 cells (cytosolic fraction)
How it was run: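 Enzyme source was BT474 cytosolic fraction (100 ng), preincubated 5 min with compound in 25 mM Tris-HCl pH7.4, 1 mM MgCl2, 1 mM DTT, 0.05% Tween20, 1% DMSO. Reaction started with 100 μM each of acetate, CoA and ATP, 2 h at 25 °C, stopped with TCA; acetyl-CoA quantified by LC-MS/MS.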

T1 sequence (Q9NR19 whole entry): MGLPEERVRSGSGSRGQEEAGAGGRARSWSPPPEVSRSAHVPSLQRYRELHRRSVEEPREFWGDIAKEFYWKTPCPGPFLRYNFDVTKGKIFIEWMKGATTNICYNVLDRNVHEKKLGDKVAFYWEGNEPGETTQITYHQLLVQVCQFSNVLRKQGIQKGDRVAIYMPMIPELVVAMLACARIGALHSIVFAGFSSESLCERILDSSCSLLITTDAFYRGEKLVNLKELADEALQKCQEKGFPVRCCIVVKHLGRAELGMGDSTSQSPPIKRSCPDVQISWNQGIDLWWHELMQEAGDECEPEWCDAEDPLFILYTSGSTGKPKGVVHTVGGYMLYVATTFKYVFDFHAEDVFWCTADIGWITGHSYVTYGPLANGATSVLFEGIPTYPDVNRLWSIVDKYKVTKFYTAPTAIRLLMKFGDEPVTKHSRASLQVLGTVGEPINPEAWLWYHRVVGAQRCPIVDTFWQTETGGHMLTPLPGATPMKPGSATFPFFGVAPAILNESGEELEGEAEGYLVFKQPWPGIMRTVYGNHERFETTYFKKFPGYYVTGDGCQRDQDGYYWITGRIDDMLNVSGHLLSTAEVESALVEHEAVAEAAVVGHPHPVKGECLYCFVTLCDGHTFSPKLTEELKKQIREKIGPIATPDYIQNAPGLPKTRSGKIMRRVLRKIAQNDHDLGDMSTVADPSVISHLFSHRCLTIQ

O=C(Nc1ccc2nc(-c3ccccc3)c(-c3ccccc3)cc2c1)Nc1ccccn1 [Example 139, 1-(2,3-diphenylquinolin-6-yl)-3-(pyridin-2-yl)urea]
IC50 [1]: > 10000 nM
IC50 (human ACSS2): > 10000 nM

CCCCNC(=O)Nc1ccc2nc(-c3ccccc3)c(-c3ccccc3)cc2c1 [Example 3, 1-butyl-3-(2,3-diphenylquinolin-6-yl)urea]
IC50 [1]: < 100 nM
IC50 (human ACSS2): < 100 nM

CCC(O)CCC(=O)Nc1ccc2nc(C)c(-c3ccccc3F)cc2c1 (centres unmarked) [Example 129, N-(3-(2-fluorophenyl)-2-methyl-quinolin-6-yl)-4-hydroxy-hexanamide]
IC50 [1]: < 100 nM
IC50 (human ACSS2): < 100 nM

CC[C@H](O)CNC(=O)Nc1ccc2nc(C)c(-c3ccccc3)cc2c1 [Example 89, (S)-1-(2-hydroxybutyl)-3-(2-methyl-3-phenylquinolin-6-yl)urea]
IC50 [1]: ≤ 1000 nM
IC50 (human ACSS2): ≤ 1000 nM

CCCCNC(=O)Nc1ccc2nc(C)c(-c3ccccc3)cc2c1 [Example 76, 1-butyl-3-(2-methyl-3-phenylquinolin-6-yl)urea]
IC50 [1]: < 100 nM
IC50 (human ACSS2): ≤ 1000 nM

O=C(Nc1ccc2nc(-c3ccccc3)c(-c3ccccc3)cc2c1)NC1(CO)CCCC1 [Example 143, 1-(2,3-diphenylquinolin-6-yl)-3-(1-(hydroxymethyl)cyclopentyl) urea]
IC50 [1]: ≤ 10000 nM
IC50 (human ACSS2): > 10000 nM

C#Cc1nc2ccc(NC(=O)NCC(O)CC)cc2cc1-c1ccccc1 (centres unmarked) [Example 60, 1-(2-ethynyl-3-phenylquinolin-6-yl)-3-(2-hydroxybutyl) urea]
IC50 [1]: < 100 nM
IC50 (human ACSS2): < 100 nM

CCC(O)CCC(=O)Nc1ccc2nc(-c3ccccc3)c(-c3ccccc3)cc2c1 (centres unmarked) [Example 127, N-(2,3-diphenyl-quinolin-6-yl)-4-hydroxy-hexanamide]
IC50 [1]: < 100 nM
IC50 (human ACSS2): < 100 nM

CC[C@@H](O)CNC(=O)Nc1ccc2nc(C)c(-c3ccccc3)cc2c1 [Example 72, (R)-1-(2-Hydroxybutyl)-3-(2-methyl-3-phenylquinolin-6-yl)urea]
IC50 [1]: < 100 nM
IC50 (human ACSS2): < 100 nM

CCC(O)CNC(=O)Nc1ccc2nc(-c3ccccc3OC)c(-c3ccccc3F)cc2c1 (centres unmarked) [Example 18, 1-(3-(2-fluorophenyl)-2-(2-methoxyphenyl)quinolin-6-yl)-3-(2-hydroxybutyl) urea]
IC50 [1]: < 100 nM
IC50 (human ACSS2): < 100 nM

CCCCC(F)(F)C(=O)Nc1ccc2nc(-c3ccccc3)c(-c3ccccc3)cc2c1 [Example 122, N-(2,3-diphenyl-quinolin-6-yl)-2,2-difluoro-hexanamide]
IC50 [1]: > 10000 nM
IC50 (human ACSS2): ≤ 10000 nM

CCC(O)CNC(=O)Nc1ccc2nc(/C=C/c3ccccc3)c(-c3ccccc3)cc2c1 (centres unmarked) [Example 50, (E)-1-(2-hydroxybutyl)-3-(3-phenyl-2-styrylquinolin-6-yl)urea]
IC50 [1]: > 10000 nM
IC50 (human ACSS2): ≤ 10000 nM

CCC(O)CNC(=O)Nc1ccc2nc(C)c(-c3cnn(C)c3)cc2c1 (centres unmarked) [Example 82, 1-(2-hydroxybutyl)-3-(2-methyl-3-(1-methyl-1H-pyrazol-4-yl)quinolin-6-yl)urea]
IC50 [1]: > 10000 nM
IC50 (human ACSS2): ≤ 1000 nM

CCC(O)CNC(=O)Nc1ccc2nc(-c3ccccc3OC)c(-c3ccccc3)cc2c1 (centres unmarked) [Example 12, 1-(2-hydroxybutyl)-3-(2-(2-methoxyphenyl)-3-phenylquinolin-6-yl)urea]
IC50 [1]: < 100 nM
IC50 (human ACSS2): < 100 nM

CCC(O)CNC(=O)Nc1ccc2nc(C)c(-c3ccccc3F)c(C(N)=O)c2c1 (centres unmarked) [Example 73, 3-(2-fluorophenyl)-6-(3-(2-hydroxybutyl)ureido)-2-methylquinoline-4-carboxamide]
IC50 [1]: ≤ 1000 nM
IC50 (human ACSS2): < 100 nM

CCC(O)CNC(=O)Nc1ccc2nc(-c3cn[nH]c3)c(-c3cn[nH]c3)cc2c1 (centres unmarked) [Example 22, 1-(2,3-di(1H-pyrazol-4-yl)quinolin-6-yl)-3-(2-hydroxybutyl) urea]
IC50 [1]: > 10000 nM
IC50 (human ACSS2): ≤ 10000 nM

CC[C@@H](O)CNC(=O)Nc1ccc2nc(-c3ccccc3)c(C)c(C(=O)NC)c2c1 [Example 108, (R)-6-(3-(2-hydroxybutyl)ureido)-N,3-dimethyl-2-phenylquinoline-4-carboxamide]
IC50 [1]: < 100 nM
IC50 (human ACSS2): < 100 nM

CCc1nc2ccc(NC(=O)NCC(O)CC)cc2cc1-c1ccccc1 (centres unmarked) [Example 61, 1-(2-ethyl-3-phenylquinolin-6-yl)-3-(2-hydroxybutyl) urea]
IC50 [1]: < 100 nM
IC50 (human ACSS2): < 100 nM

CCCCCC(=O)Nc1ccc2nc(-c3ccccc3F)c(-c3ccccc3F)cc2c1 [Example 121, N-(2,3-bis(2-fluorophenyl)quinolin-6-yl) hexanamide]
IC50 [1]: ≤ 1000 nM
IC50 (human ACSS2): < 100 nM

CCC(O)CNC(=O)Nc1ccc2nc(-c3ccccc3)c(-c3ccccc3)c(NS(C)(=O)=O)c2c1 (centres unmarked) [Example 94, N-(6-(3-(2-Hydroxybutyl)ureido)-2,3-diphenylquinolin-4-yl)methanesulfonamide]
IC50 [1]: < 100 nM
IC50 (human ACSS2): < 100 nM

CC[C@@H](O)CNC(=O)Nc1ccc2nc(-c3ccccc3)c(C)c(C(=O)NCc3ccccc3)c2c1 [Example 104, (R)-N-benzyl-6-(3-(2-hydroxybutyl)ureido)-3-methyl-2-phenylquinoline-4-carboxamide]
IC50 [1]: < 100 nM
IC50 (human ACSS2): < 100 nM

CCC(F)(F)CNC(=O)Nc1ccc2nc(C)c(-c3ccccc3)cc2c1 [Example 105, 1-(2,2-difluorobutyl)-3-(2-methyl-3-phenylquinolin-6-yl)urea]
IC50 [1]: < 100 nM
IC50 (human ACSS2): < 100 nM

CCC(O)CNC(=O)Nc1ccc2nc(-c3ccc(=O)[nH]c3)c(-c3ccc(=O)[nH]c3)cc2c1 (centres unmarked) [Example 27, 1-(2,3-bis(6-oxo-1,6-dihydropyridin-3-yl)quinolin-6-yl)-3-(2-hydroxybutyl) urea]
IC50 [1]: ≤ 10000 nM
IC50 (human ACSS2): ≤ 1000 nM

CCC(O)CNC(=O)Nc1ccc2nc(C3CC3)c(-c3ccccc3)cc2c1 (centres unmarked) [Example 40, 1-(2-cyclopropyl-3-phenylquinolin-6-yl)-3-(2-hydroxybutyl) urea]
IC50 [1]: ≤ 10000 nM
IC50 (human ACSS2): ≤ 1000 nM

O=C(Nc1ccc2nc(-c3ccccc3)c(-c3ccccc3)cc2c1)NC1CCOCC1 [Example 137, 1-(2,3-diphenylquinolin-6-yl)-3-(tetrahydro-2H-pyran-4-yl)urea]
IC50 [1]: ≤ 1000 nM
IC50 (human ACSS2): ≤ 1000 nM

CCC(=O)CCC(=O)Nc1ccc2nc(-c3ccccc3F)c(-c3ccccc3)cc2c1 [Example 123, N-(2-(2-fluorophenyl)-3-phenyl-quinolin-6-yl)-4-oxohexan-amide]
IC50 [1]: < 100 nM
IC50 (human ACSS2): < 100 nM

CCC(O)CNC(=O)Nc1ccc2nc(C)c(C)c(C(N)=O)c2c1 (centres unmarked) [Example 69, 6-(3-(2-hydroxybutyl)ureido)-2,3-dimethylquino-line-4-carboxamide]
IC50 [1]: > 10000 nM
IC50 (human ACSS2): ≤ 10000 nM

CCC(O)CNC(=O)Nc1ccc2nc(-c3cccnc3O)c(-c3cccnc3O)cc2c1 (centres unmarked) [Example 42, 1-(2,3-bis(2-hydroxypyridin-3-yl)quinolin-6-yl)-3-(2-hydroxybutyl) urea]
IC50 [1]: > 10000 nM
IC50 (human ACSS2): > 10000 nM

CCC(O)CNC(=O)Nc1ccc2nc(-c3ccc(OC)nc3)c(-c3ccc(OC)nc3)cc2c1 (centres unmarked) [Example 11, 1-(2,3-bis(6-methoxypyridin-3-yl)quinolin-6-yl)-3-(2-hydroxybutyl) urea]
IC50 [1]: ≤ 10000 nM
IC50 (human ACSS2): ≤ 1000 nM

CCC(CNC(=O)Nc1ccc2nc(-c3ccccc3)c(-c3ccccc3F)cc2c1)OC (centres unmarked) [Example 44, 1-(3-(2-fluorophenyl)-2-phenylquinolin-6-yl)-3-(2-methoxybutyl) urea]
IC50 [1]: < 100 nM
IC50 (human ACSS2): < 100 nM

CCC(O)CNC(=O)Nc1ccc2nc(-c3ccccc3)c(-c3ccccc3OC)cc2c1 (centres unmarked) [Example 10, 1-(2-hydroxybutyl)-3-(3-(2-methoxyphenyl)-2-phenylquinolin-6-yl)urea]
IC50 [1]: < 100 nM
IC50 (human ACSS2): < 100 nM

CC[C@@H](O)CNC(=O)Nc1ccc2nc(C)c(-c3ccccc3F)cc2c1-c1ccc[nH]c1=O [Example 111, (R)-1-(3-(2-fluorophenyl)-2-methyl-5-(2-oxo-1,2-dihydropyridin-3-yl)quinolin-6-yl)-3-(2-hydroxybutyl) urea]
IC50 [1]: ≤ 1000 nM
IC50 (human ACSS2): < 100 nM

CCC(O)CNC(=O)Nc1ccc2nc(-c3ccccc3N(C)C)c(-c3ccccc3F)cc2c1 (centres unmarked) [Example 33, 1-(2-(2-(dimethylamino)phenyl)-3-(2-fluorophenyl)quinolin-6-yl)-3-(2-hydroxybutyl) urea]
IC50 [1]: < 100 nM
IC50 (human ACSS2): < 100 nM

CCC(O)CNC(=O)Nc1ccc2nc(C)c(-c3ccccc3)cc2c1C (centres unmarked) [Example 85, 1-(2,5-dimethyl-3-phenylquinolin-6-yl)-3-(2-hydroxybutyl) urea]
IC50 [1]: < 100 nM
IC50 (human ACSS2): < 100 nM

CCCCCC(=O)Nc1ccc2nc(-c3ccccc3)c(-c3ccccc3)cc2c1 [Example 118, N-(2,3-diphenyl-quinolin-6-yl) hexanamide]
IC50 [1]: ≤ 1000 nM
IC50 (human ACSS2): ≤ 1000 nM

CCC(O)CNC(=O)Nc1ccc2nc(-c3ccc(F)cc3)c(-c3ccccc3F)cc2c1 (centres unmarked) [Example 47, 1-(3-(2-fluorophenyl)-2-(4-fluorophenyl)quinolin-6-yl)-3-(2-hydroxybutyl) urea]
IC50 [1]: < 100 nM
IC50 (human ACSS2): < 100 nM

CC[C@@H](O)CNC(=O)Nc1ccc2nc(-c3ccccc3)c(C)c(C(=O)NCc3cnn(C)c3)c2c1 [Example 114, (R)-6-(3-(2-hydroxybutyl)ureido)-3-methyl-N-((1-methyl-1H-pyrazol-4-yl)methyl)-2-phenylquinoline-4-carboxamide]
IC50 [1]: ≤ 1000 nM
IC50 (human ACSS2): < 100 nM
